{"source": "patent US10813930B2", "about": "“Substituted imidazopyridazines and benzimidazoles as inhibitors of FGFR3” (Incyte Corporation, priority 2010, dated 2020)", "note": "pIC50: −log10 of the molar value."}
{"target": "FGFR3 enzyme (Millipore) (Homo sapiens (Human), UniProt P22607)", "sequence (P22607 23-806)": "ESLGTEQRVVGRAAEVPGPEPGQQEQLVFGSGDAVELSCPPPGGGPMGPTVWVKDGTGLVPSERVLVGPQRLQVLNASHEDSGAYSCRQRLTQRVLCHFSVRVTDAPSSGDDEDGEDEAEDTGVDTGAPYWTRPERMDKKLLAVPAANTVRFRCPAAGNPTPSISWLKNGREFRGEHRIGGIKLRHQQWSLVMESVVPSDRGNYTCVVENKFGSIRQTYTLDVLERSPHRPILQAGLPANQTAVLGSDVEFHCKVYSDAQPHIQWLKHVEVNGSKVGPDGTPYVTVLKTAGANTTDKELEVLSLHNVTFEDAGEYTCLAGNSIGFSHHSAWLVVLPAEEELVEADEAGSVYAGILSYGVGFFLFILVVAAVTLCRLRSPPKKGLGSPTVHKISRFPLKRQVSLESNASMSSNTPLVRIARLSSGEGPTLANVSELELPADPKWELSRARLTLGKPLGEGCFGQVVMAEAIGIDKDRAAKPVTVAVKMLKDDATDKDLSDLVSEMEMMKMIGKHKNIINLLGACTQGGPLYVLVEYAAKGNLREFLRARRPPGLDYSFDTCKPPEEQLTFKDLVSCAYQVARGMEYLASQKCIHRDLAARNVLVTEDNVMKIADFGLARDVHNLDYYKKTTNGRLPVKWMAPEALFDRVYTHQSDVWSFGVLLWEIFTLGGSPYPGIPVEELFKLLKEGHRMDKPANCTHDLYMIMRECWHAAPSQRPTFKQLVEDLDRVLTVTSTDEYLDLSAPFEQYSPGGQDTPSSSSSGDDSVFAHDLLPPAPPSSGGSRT", "experiment": "FGFR3 Enzymatic Assay (peptide phosphorylation, FRET/HTRF)", "type": "biochemical", "conditions": "140 μM ATP, 25° C. 1 hr", "description": "FGFR3 Enzymatic Assay The inhibitor potency of compounds of the invention was measured in an enzyme assay that measures peptide phosphorylation using FRET measurements to detect product formation. Inhibitors were serially diluted in DMSO and a volume of 0.5 μL was transferred to the wells of a 384-well plate. A 10 μL volume of FGFR3 enzyme (Millipore) diluted in assay buffer (50 mM HEPES, 10 mM MgCl2, 1 mM EGTA, 0.01% Tween-20, 5 mM DTT, pH 7.5) was added to the plate and pre-incubated for 5-10 minutes. Appropriate controls (enzyme blank and enzyme with no inhibitor) were included on the plate. […] The plate was incubated at 25° C. for 1 hr. […] The plate was allowed to equilibrate for ˜1 hr before scanning the wells on a PheraStar plate reader.\nGraphPad prism3 was used to analyze the data. The IC50 values were derived by fitting the data to the equation for a sigmoidal dose-response with a variable slope. Y=Bottom+(Top-Bottom)/(1+10^(Log IC50−X)*HillSlope)) where X is the logarithm of concentration and Y is the response."}
{"smiles": "CC(C(=O)N1CC(O)C1)n1cc(-c2cnn3c(-c4cccc(NC(=O)NCC(F)(F)F)c4)cnc3c2)cn1", "note": "(stereo not shown) [Example 64, N-[3-(7-{1-[2-(3-Hydroxyazetidin-1-yl)-1-methyl-2-oxoethyl]-1H-pyrazol-4-yl}imidazo[1,2-b]pyridazin-3-yl)phenyl]-N′-(2,2,2-trifluoroethyl)urea]", "pIC50": "> 8.00"}
{"smiles": "N#CCC1(n2cc(-c3cnn4c(-c5cccc(NC(=O)NCC(F)(F)F)c5)cnc4c3)cn2)CN(C(=O)N2CCCC2)C1", "note": "[Example 86, N-[3-(7-{1-[3-(Cyanomethyl)-1-(pyrrolidin-1-ylcarbonyl)azetidin-3-yl]-1H-pyrazol-4-yl}imidazo[1,2-b]pyridazin-3-yl)phenyl]-N′-(2,2,2-trifluoroethyl)u rea]", "pIC50": "> 8.00"}
{"smiles": "N#CCC1(n2cc(-c3cnn4c(-c5cccc(NC(=O)NCC(F)(F)F)c5)cnc4c3)cn2)CN(C(=O)OCC2CC2)C1", "note": "[Example 88, Cyclopropylmethyl 3-(cyanomethyl)-3-(4-{3-[3-({[(2,2,2-trifluoroethyl)amino]carbonyl}amino)phenyl]imidazo[1,2-b]pyridazin-7-yl}-1H-pyrazol-1-yl)azetidine-1-carboxylate]", "pIC50": "> 8.00"}
{"smiles": "CC(C(=O)N1CCC(F)(F)C1)n1cc(-c2cnn3c(-c4cccc(NC(=O)NCC(F)(F)F)c4)cnc3c2)cn1", "note": "(stereo not shown) [Example 65, N-[3-(7-{1-[2-(3,3-Difluoropyrrolidin-1-yl)-1-methyl-2-oxoethyl]-1H-pyrazol-4-yl}imidazo[1,2-b]pyridazin-3-yl)phenyl]-N′-(2,2,2-trifluoroethyl)urea]", "pIC50": "> 8.00"}
{"smiles": "N#CCC1(n2cc(-c3cnn4c(-c5cccc(NC(=O)NCC(F)(F)F)c5)cnc4c3)cn2)CN(C(=O)C2CCOC2)C1", "note": "(stereo not shown) [Example 82, N-[3-(7-{1-[3-(Cyanomethyl)-1-(tetrahydrofuran-3-ylcarbonyl)azetidin-3-yl]-1H-pyrazol-4-yl}imidazo[1,2-b]pyridazin-3-yl)phenyl]-N′-(2,2,2-trifluoroethyl)urea]", "pIC50": "> 8.00"}
{"smiles": "CC(O)CNC(=O)C(C)n1cc(-c2cnn3c(-c4cccc(NC(=O)NCC(F)(F)F)c4)cnc3c2)cn1", "note": "(stereo not shown) [Example 63, N-(2-Hydroxypropyl)-2-(4-{3-[3-({[(2,2,2-trifluoroethyl)amino]carbonyl}amino)phenyl]imidazo[1,2-b]pyridazin-7-yl}-1H-pyrazol-1-yl)propanamide]", "pIC50": "> 8.00"}
{"smiles": "N#CCC1(n2cc(-c3cnn4c(-c5cccc(NC(=O)NCC(F)(F)F)c5)cnc4c3)cn2)CN(C(=O)C2(C#N)CC2)C1", "note": "[Example 80, N-[3-(7-{1-[1-[(1-Cyanocyclopropyl)carbonyl]-3-(cyanomethyl)azetidin-3-yl]-1H-pyrazol-4-yl}imidazo[1,2-b]pyridazin-3-yl)phenyl]-N′-(2,2,2-trifluoroethyl)urea]", "pIC50": "> 8.00"}
{"smiles": "N#CCC(=O)N1CC(CC#N)(n2cc(-c3cnn4c(-c5cccc(NC(=O)NCC(F)(F)F)c5)cnc4c3)cn2)C1", "note": "[Example 77, N-[3-(7-{1-[1-(Cyanoacetyl)-3-(cyanomethyl)azetidin-3-yl]-1H-pyrazol-4-yl}imidazo[1,2-b]pyridazin-3-yl)phenyl]-N′-(2,2,2-trifluoroethyl)urea]", "pIC50": "> 8.00"}
{"smiles": "N#CCC1(n2cc(-c3cnn4c(-c5cccc(NC(=O)NCC(F)(F)F)c5)cnc4c3)cn2)CN(C(=O)N2CCOCC2)C1", "note": "[Example 85, N-[3-(7-{1-[3-(Cyanomethyl)-1-(morpholin-4-ylcarbonyl)azetidin-3-yl]-1H-pyrazol-4-yl}imidazo[1,2-b]pyridazin-3-yl)phenyl]-N′-(2,2,2-trifluoroethyl)urea]", "pIC50": "> 8.00"}
{"smiles": "N#CCC1(n2cc(-c3cnn4c(-c5cccc(NC(=O)NCC(F)(F)F)c5)cnc4c3)cn2)CN(C(=O)CC2CC2)C1", "note": "[Example 78, N-[3-(7-{1-[3-(Cyanomethyl)-1-(cyclopropylacetyl)azetidin-3-yl]-1H-pyrazol-4-yl}imidazo[1,2-b]pyridazin-3-yl)phenyl]-N′-(2,2,2-trifluoroethyl)urea]", "pIC50": "> 8.00"}
{"smiles": "CC1(C(=O)N2CC(CC#N)(n3cc(-c4cnn5c(-c6cccc(NC(=O)NCC(F)(F)F)c6)cnc5c4)cn3)C2)CC1", "note": "[Example 79, N-{3-[7-(1-{3-(Cyanomethyl)-1-[(1-methylcyclopropyl)carbonyl]azetidin-3-yl}-1H-pyrazol-4-yl)imidazo[1,2-b]pyridazin-3-yl]phenyl}-N′-(2,2,2-trifluoroethyl)urea]", "pIC50": "> 8.00"}
{"smiles": "N#CCC1(n2cc(-c3cnn4c(-c5cccc(NC(=O)NCC(F)(F)F)c5)cnc4c3)cn2)CN(C(=O)NCC2CC2)C1", "note": "[Example 87, 3-(Cyanomethyl)-N-(cyclopropylmethyl)-3-(4-{3-[3-({[(2,2,2-trifluoroethyl)amino]carbonyl}amino)phenyl]imidazo[1,2-b]pyridazin-7-yl}-1H-pyrazol-1-yl)azetidine-1-carboxamide]", "pIC50": "> 8.00"}
{"smiles": "N#CCC1(n2cc(-c3cnn4c(-c5cccc(NC(=O)NCC(F)(F)F)c5)cnc4c3)cn2)CN(C(=O)CC2CCCO2)C1", "note": "(stereo not shown) [Example 81, N-[3-(7-{1-[3-(Cyanomethyl)-1-(tetrahydrofuran-2-ylacetyl)azetidin-3-yl]-1H-pyrazol-4-yl}imidazo[1,2-b]pyridazin-3-yl)phenyl]-N′-(2,2,2-trifluoroethyl)urea]", "pIC50": "> 8.00"}
